Source: ChEMBL document CHEMBL5154756 (Bioorg Med Chem, 2022)
Active and inactive are the calls of the source. No cut-off for these calls is given here.

Key:
[1] = tested on: MCF7; experiment: Antiproliferative activity against human MCF7 cells over expressing GLUT1 measured after 72 hrs by MTT assay; assay type: functional, cell-based; details: MCF7, 72 h
[2] = tested on: HT-29; experiment: Antiproliferative activity against human HT-29 cells over expressing GLUT1 measured after 72 hrs by MTT assay; assay type: functional, cell-based; details: HT-29, 72 h
[3] = tested on: Hep 3B2; experiment: Antiproliferative activity against human Hep3B cells measured after 72 hrs by MTT assay; assay type: functional, cell-based
[4] = Selectivity ratio of IC50 for human Hep3B cells to IC50 for human MCF7 cells; assay type: functional
[5] = Selectivity ratio of IC50 for human Hep3B cells to IC50 for human HT-29 cells; assay type: functional
[6] = molecular target: T1, Tubulin (Homo sapiens) (UniProt P68371+Q9H4B7+P0DPH7+P68366+Q13509+Q71U36+P04350+Q3ZCM7+P07437+P68363+Q9BQE3+Q6PEY2+Q13885+Q9BVA1+Q9BUF5); experiment: Inhibition of tubulin polymerization in human A549 cells assessed as appearance of short microtubule at 0.766 uM measured after 24 hrs by immunofluorescence confocal microscopic analysis; assay type: cell-based
[7] = Cytotoxicity against HUVEC measured after 72 hrs by MTT assay; assay type: toxicity, cell-based; details: human, HUVEC cells
[8] = tested on: HT-29; experiment: Antiproliferative activity against human HT-29 cells over expressing GLUT1 assessed as cell viability at 4 uM measured after 48 hrs by MTT assay relative to control; assay type: functional; details: read-out: Activity
[9] = tested on: HT-29; experiment: Antiproliferative activity against human HT-29 cells over expressing GLUT1 assessed as cell viability at 8 uM measured after 48 hrs by MTT assay relative to control; assay type: functional; details: read-out: Activity
[10] = tested on: HT-29; experiment: Antiproliferative activity against human HT-29 cells over expressing GLUT1 assessed as cell viability at 4 uM measured after 48 hrs in presence of GLUT1-specific inhibitor quercetin by MTT assay relative to control; assay type: functional; details: read-out: Activity
[11] = tested on: HT-29; experiment: Antiproliferative activity against human HT-29 cells over expressing GLUT1 assessed as cell viability at 8 uM measured after 48 hrs in presence of GLUT1-specific inhibitor quercetin by MTT assay relative to control; assay type: functional; details: read-out: Activity
[12] = molecular target: Tubulin (Sus scrofa) (UniProt P02554+P02550); experiment: Inhibition of porcine brain tubulin polymerization assessed as inhibition of microtubule polymerization measured at 1 min interval for 90 mins by microplate reader method; details: dose 12.5-25 µM, DDE = dose-dependent effect
[13] = molecular target: T1, Tubulin (Homo sapiens); experiment: Inhibition of tubulin polymerization in human A549 cells assessed as appearance of wrapped microtubule around nucleus at 0.766 uM measured after 24 hrs by immunofluorescence confocal microscopic analysis; assay type: cell-based
[14] = tested on: HT-29; experiment: Antiproliferative activity against human HT-29 cells over expressing GLUT1 assessed as cell viability measured after 48 hrs by MTT assay relative to control; assay type: functional
[15] = tested on: HT-29; experiment: Antiproliferative activity against human HT-29 cells over expressing GLUT1 assessed as cell viability measured after 48 hrs in presence of GLUT1-specific inhibitor quercetin by MTT assay relative to control; assay type: functional

Chain of Tubulin (Sus scrofa) (P02550 whole entry, looked up): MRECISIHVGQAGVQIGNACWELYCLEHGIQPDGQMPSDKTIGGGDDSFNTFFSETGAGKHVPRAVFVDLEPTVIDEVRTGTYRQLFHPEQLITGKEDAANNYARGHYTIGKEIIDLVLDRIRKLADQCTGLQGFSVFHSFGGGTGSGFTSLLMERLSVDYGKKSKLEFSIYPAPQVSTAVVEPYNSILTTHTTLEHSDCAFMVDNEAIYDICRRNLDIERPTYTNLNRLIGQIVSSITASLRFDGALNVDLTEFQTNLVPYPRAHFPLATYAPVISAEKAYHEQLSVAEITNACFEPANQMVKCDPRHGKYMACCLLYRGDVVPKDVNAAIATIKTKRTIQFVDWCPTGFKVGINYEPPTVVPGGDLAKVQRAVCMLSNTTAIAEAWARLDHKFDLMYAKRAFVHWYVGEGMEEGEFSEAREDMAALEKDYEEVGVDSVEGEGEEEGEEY
Chain of Tubulin (Sus scrofa) (P02554 whole entry, looked up): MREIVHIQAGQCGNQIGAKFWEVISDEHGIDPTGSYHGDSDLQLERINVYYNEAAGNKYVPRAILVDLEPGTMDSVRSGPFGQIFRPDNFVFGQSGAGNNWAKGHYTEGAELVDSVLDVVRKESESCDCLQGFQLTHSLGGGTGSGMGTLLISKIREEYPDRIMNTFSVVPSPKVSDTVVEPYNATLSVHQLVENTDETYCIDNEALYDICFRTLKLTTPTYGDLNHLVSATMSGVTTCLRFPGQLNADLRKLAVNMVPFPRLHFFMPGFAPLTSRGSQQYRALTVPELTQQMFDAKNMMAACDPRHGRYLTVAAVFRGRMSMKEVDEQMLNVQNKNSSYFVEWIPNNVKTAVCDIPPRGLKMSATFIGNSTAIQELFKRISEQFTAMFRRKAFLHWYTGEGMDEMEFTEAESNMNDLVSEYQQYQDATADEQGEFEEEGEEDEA

| SMILES | IC50 [1] [µM] | IC50 [2] [µM] | IC50 [3] [µM] | Ratio IC50 [4] | Ratio IC50 [5] | also measured |
| --- | --- | --- | --- | --- | --- | --- |
| COc1cc2c(c(OC)c1OC)-c1ccc(OC)c(=O)cc1[C@@H](NC(=O)COCC(=O)OC[C@H]1OC(O)[C@@H](O)[C@@H](O)[C@@H]1O)CC2 (some centres not stated) | 2.2 | 2.93 | 6.43 | 2.92 | 2.19 | – |
| COc1cc2c(c(OC)c1OC)-c1ccc(OC)c(=O)cc1[C@@H](NC(=O)CCC(=O)OC[C@H]1OC(O)[C@H](O)[C@@H](O)[C@@H]1O)CC2 (some centres not stated) | 1.15 | 1.09 | 6.35 | 5.52 | 5.83 | – |
| COc1cc2c(c(OC)c1OC)-c1ccc(OC)c(=O)cc1[C@@H](NC(=O)CSCC(=O)O[C@H]1[C@H](O)[C@@H](CO)OC(O)[C@@H]1O)CC2 (some centres not stated) | 0.65 | 0.79 | 8.56 | 13.17 | 10.84 | inhibition [6]: Active; IC50 at 72 h [7]: 1.88 µM; viability at 4 µM [8]: 13.2%; viability at 8 µM [9]: 12.5%; viability at 4 µM [10]: 22.8%; viability at 8 µM [11]: 20.1%; inhibition [12]: Dde; inhibition [13]: Active |
| COc1cc2c(c(OC)c1OC)-c1ccc(OC)c(=O)cc1[C@@H](NC(=O)CSCC(=O)OC[C@H]1OC(O)[C@H](O)[C@@H](O)[C@@H]1O)CC2 (some centres not stated) | 3.56 | 1.16 | 9.26 | 2.6 | 7.98 | – |
| COc1cc2c(c(OC)c1OC)-c1ccc(OC)c(=O)cc1[C@@H](NC(=O)CCCC(=O)O[C@H]1[C@H](O)[C@@H](CO)OC(O)[C@@H]1O)CC2 (some centres not stated) | 7.17 | 6.47 | 8.91 | 1.24 | 1.38 | – |
| COc1cc2c(c(OC)c1OC)-c1ccc(OC)c(=O)cc1[C@@H](NC(=O)CCCC(=O)OC[C@H]1OC(O)[C@H](O)[C@@H](O)[C@@H]1O)CC2 (some centres not stated) | > 10 | 4.14 | > 10 | – | – | – |
| COc1cc2c(c(OC)c1OC)-c1ccc(OC)c(=O)cc1[C@@H](NC(=O)CCCCC(=O)O[C@H]1[C@H](O)[C@@H](CO)OC(O)[C@@H]1O)CC2 (some centres not stated) | > 10 | > 10 | > 10 | – | – | – |
| COc1cc2c(c(OC)c1OC)-c1ccc(OC)c(=O)cc1[C@@H](NC(=O)CSCC(=O)OC[C@H]1OC(O)[C@@H](O)[C@@H](O)[C@@H]1O)CC2 (some centres not stated) | 6.05 | 2.11 | > 10 | – | – | – |
| COc1cc2c(c(OC)c1OC)-c1ccc(OC)c(=O)cc1[C@@H](NC(=O)COCC(=O)O[C@H]1[C@H](O)[C@@H](CO)OC(O)[C@@H]1O)CC2 (some centres not stated) | 1.2 | 0.83 | > 10 | – | – | – |
| COc1cc2c(c(OC)c1OC)-c1ccc(OC)c(=O)cc1[C@@H](NC(=O)CCC(=O)OC[C@H]1OC(O)[C@@H](O)[C@@H](O)[C@@H]1O)CC2 (some centres not stated) | 0.67 | – | 2.91 | 4.34 | – | – |
| COc1cc2c(c(OC)c1OC)-c1ccc(OC)c(=O)cc1[C@@H](NC(C)=O)CC2 [COLCHICINE] | 0.043 | – | 0.14 | – | – | Activity [14]: 12.7%; IC50 at 72 h [7]: 0.012 µM; Activity [15]: 14.8% |
| COc1cc2c(c(OC)c1OC)-c1ccc(OC)c(=O)cc1[C@@H](NC(=O)CCC(=O)O[C@H]1[C@H](O)[C@@H](CO)OC(O)[C@@H]1O)CC2 (some centres not stated) | 0.76 | 0.98 | 7.03 | 9.25 | 7.17 | – |
| COc1cc2c(c(OC)c1OC)-c1ccc(OC)c(=O)cc1[C@@H](NC(=O)CCCC(=O)OC[C@H]1OC(O)[C@@H](O)[C@@H](O)[C@@H]1O)CC2 (some centres not stated) | > 10 | > 10 | > 10 | – | – | – |
| COc1cc2c(c(OC)c1OC)-c1ccc(OC)c(=O)cc1[C@@H](NC(=O)CCCCC(=O)OC[C@H]1OC(O)[C@H](O)[C@@H](O)[C@@H]1O)CC2 (some centres not stated) | > 10 | 9.73 | > 10 | – | – | – |
| COc1cc2c(c(OC)c1OC)-c1ccc(OC)c(=O)cc1[C@@H](NC(=O)CCCCC(=O)OC[C@H]1OC(O)[C@@H](O)[C@@H](O)[C@@H]1O)CC2 (some centres not stated) | > 10 | > 10 | > 10 | – | – | – |
| COc1cc2c(c(OC)c1OC)-c1ccc(OC)c(=O)cc1[C@@H](NC(=O)COCC(=O)OC[C@H]1OC(O)[C@H](O)[C@@H](O)[C@@H]1O)CC2 (some centres not stated) | 3.08 | 0.24 | 4.57 | 1.48 | 19.04 | – |
